Experimental findings from PubChem BioAssay (NCI) are described below.

Values joined by “and” are separate entries in the source; they are usually repeats but may differ in a detail not shown here. Equal entries are not always repeated.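 How tested: cells in 96-well plates exposed to compound for 48 hours at five concentrations. Abbreviation: GI50, concentration required for 50% inhibition of growth. TGI is the concentration that stops growth completely.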

Among the test systems are CAKI-1 renal; CCRF-CEM leukemia; HCC-2998 colon; HT29 colon; KM12 colon; OVCAR-5 ovarian; RPMI-8226 leukemia; SK-MEL-2 melanoma; UACC-257 melanoma; PC-3 prostate.
Holding throughout (experiment): growth of human tumour cells (NCI), 48 h

For `COc1ccc(/C=C/C(C(=O)O)C(=O)O)cc1`, the TGI in the assay with CAKI-1 renal is more than 100 µM; with CCRF-CEM leukemia it was 82.3 µM; in the assay on HCC-2998 colon it was more than 100 µM; in the assay on HT29 colon, more than 100 µM; in the assay with KM12 colon, more than 100 µM; in the assay with OVCAR-5 ovarian it was more than 100 µM. In addition, the TGI with RPMI-8226 leukemia, with SK-MEL-2 melanoma and with UACC-257 melanoma was more than 100 µM in each case.

`CC(C)c1ccc(O)c(=O)cc1`: the GI50 in the assay with CAKI-1 renal is 8.54 µM; with CCRF-CEM leukemia it was 1.67 µM; with HT29 colon, 2.81 µM; in the assay with KM12 colon it was 5.28 µM; in the assay on OVCAR-5 ovarian it was 6.84 µM; in the assay on RPMI-8226 leukemia, 6.35 µM. The values for the GI50 in the assay with SK-MEL-2 melanoma and in the assay with UACC-257 melanoma were 34.5 µM and 15.9 µM, respectively. The TGI is more than 70.1 µM with CAKI-1 renal; > 41 µM and 4.89 µM in the assay with CCRF-CEM leukemia; more than 100 µM with HCC-2998 colon; more than 100 µM in the assay with HT29 colon; more than 100 µM in the assay with KM12 colon; 64.8 µM and > 100 µM in the assay on OVCAR-5 ovarian. Also, the TGI with RPMI-8226 leukemia is more than 80.5 µM; with SK-MEL-2 melanoma, 39 µM; in the assay with UACC-257 melanoma it was 31 µM.

As for `CCc1cccc(C(C)CC)c1NC(=O)CC1C(=O)Nc2ccccc2S1=O` (stereo not drawn), the TGI is more than 100 µM with CAKI-1 renal; 90.3 µM with CCRF-CEM leukemia; more than 100 µM in the assay with HCC-2998 colon; 55.1 µM with HT29 colon; more than 100 µM in the assay on OVCAR-5 ovarian; more than 100 µM with RPMI-8226 leukemia. Further, the TGI with SK-MEL-2 melanoma and with UACC-257 melanoma was more than 100 µM each time.

On to `C=CCNC(=S)OCCCCCCCCCC`, for which the TGI with CAKI-1 renal amounted to 34 µM; with CCRF-CEM leukemia, 37.4 µM; in the assay on HCC-2998 colon, 31.8 µM; in the assay on HT29 colon, 32.5 µM; in the assay with KM12 colon, 26.6 µM; in the assay on OVCAR-5 ovarian, 21.8 µM. Moreover, the figures for the TGI with RPMI-8226 leukemia, in the assay with SK-MEL-2 melanoma and in the assay on UACC-257 melanoma were 38.9 µM, 24.8 µM and 34.6 µM, respectively.

With `O=C(/C=C/c1ccc(Cl)cc1)c1ccncc1`, the TGI with CAKI-1 renal is more than 100 µM; in the assay on CCRF-CEM leukemia, more than 100 µM; in the assay on HCC-2998 colon it was more than 100 µM; with HT29 colon, 44.4 µM; with KM12 colon, 86.6 µM; with OVCAR-5 ovarian, more than 100 µM. The TGI in the assay with RPMI-8226 leukemia, in the assay on SK-MEL-2 melanoma and with UACC-257 melanoma was more than 100 µM each time.

With `COC(=O)C(=O)C(C#N)c1ccc(Cl)c(Cl)c1` (stereo not drawn), the TGI with CAKI-1 renal, with CCRF-CEM leukemia, in the assay with HT29 colon, with KM12 colon, with RPMI-8226 leukemia and in the assay on SK-MEL-2 melanoma was more than 100 µM each time. In addition, the TGI in the assay with UACC-257 melanoma was more than 100 µM.

For the compound `Cc1nn(C)c(=S)n(C)c1=O`, the TGI in the assay on CCRF-CEM leukemia was more than 100 µM; with HCC-2998 colon it was more than 100 µM; in the assay on HT29 colon, more than 100 µM; in the assay with OVCAR-5 ovarian, 53.8 µM; with RPMI-8226 leukemia it was 14.8 µM; in the assay on SK-MEL-2 melanoma it was 34.8 µM. Further, the TGI with UACC-257 melanoma is 11.2 µM.

`CC1=C(c2cc(C(=O)Nc3cccc(C(F)(F)F)c3)nc(NC#N)n2)Sc2ccccc2N1`: the TGI in the assay on CAKI-1 renal, in the assay with CCRF-CEM leukemia, in the assay on HCC-2998 colon, in the assay on HT29 colon, in the assay with KM12 colon and in the assay on OVCAR-5 ovarian was more than 100 µM each time. Moreover, the TGI with RPMI-8226 leukemia, in the assay with SK-MEL-2 melanoma and with UACC-257 melanoma was more than 100 µM each time.

Turning to `NC(=S)N/N=C(\C(=O)Nc1ccc(Cl)c(Cl)c1)C1=NN(c2ccccc2)C(c2cccc([N+](=O)[O-])c2)CC1=O` (stereo not drawn), the TGI in the assay on CAKI-1 renal was more than 100 µM; in the assay with CCRF-CEM leukemia, 62 µM; in the assay on HCC-2998 colon it was more than 100 µM; in the assay on HT29 colon it was 34.8 µM; in the assay with KM12 colon it was more than 100 µM; in the assay with OVCAR-5 ovarian it was more than 100 µM. Further, the TGI was 14.4 µM with RPMI-8226 leukemia, more than 100 µM in the assay with SK-MEL-2 melanoma and 83.1 µM in the assay on UACC-257 melanoma.

As for `CN(C)CCNC(=O)c1cccc2c1nc(-c1ccccn1)c1ccccc12`, the TGI was 61.9 µM with CAKI-1 renal; 51.7 µM in the assay with CCRF-CEM leukemia; 32.4 µM in the assay on HCC-2998 colon; 39.9 µM in the assay on HT29 colon; more than 100 µM in the assay on KM12 colon; 38.1 µM with OVCAR-5 ovarian. The TGI with SK-MEL-2 melanoma came out at 34 µM; in the assay on UACC-257 melanoma it was 30.4 µM.

For `O=C(O/N=C1/CCCC/C1=C\c1ccccc1)c1ccc(Cl)cc1`, the TGI is more than 100 µM with CAKI-1 renal; more than 100 µM in the assay on CCRF-CEM leukemia; 36.2 µM in the assay on HCC-2998 colon; more than 100 µM with HT29 colon; more than 100 µM in the assay with KM12 colon; more than 100 µM in the assay on OVCAR-5 ovarian. The TGI in the assay on RPMI-8226 leukemia, in the assay on SK-MEL-2 melanoma and in the assay on UACC-257 melanoma was more than 100 µM each time.

`Cc1cccc(N2C(=O)C(=O)C(c3nc4ccccc4s3)C(=O)C2=O)c1C`: the TGI in the assay on CAKI-1 renal, in the assay with CCRF-CEM leukemia, with HCC-2998 colon, with HT29 colon, in the assay with OVCAR-5 ovarian and in the assay with RPMI-8226 leukemia was more than 100 µM throughout. The TGI in the assay with SK-MEL-2 melanoma and in the assay on UACC-257 melanoma was more than 100 µM in each case.

For the compound `N#Cc1nc(Nc2ccc([N+](=O)[O-])cc2)sc1N`, the TGI in the assay on CAKI-1 renal was 56.7 µM; with CCRF-CEM leukemia, more than 100 µM; in the assay on HCC-2998 colon, 33.1 µM; in the assay on HT29 colon it was more than 100 µM; in the assay with KM12 colon it was more than 100 µM; in the assay on OVCAR-5 ovarian, more than 100 µM. The TGI with RPMI-8226 leukemia is more than 59.2 µM; in the assay with SK-MEL-2 melanoma, 53.2 µM; in the assay on UACC-257 melanoma, 63.7 µM.

Take `CN1c2ccccc2C(C)(C)C12CC(c1ccc(Cl)c(S(=O)(=O)N3CCCC3)c1)=NO2` (stereo not drawn): the GI50 with HCC-2998 colon is more than 100 µM; in the assay on OVCAR-5 ovarian it was more than 100 µM; with PC-3 prostate it was 59 µM; in the assay on SK-MEL-2 melanoma, more than 100 µM; with UACC-257 melanoma it was more than 100 µM. Further, the TGI with HCC-2998 colon, in the assay on OVCAR-5 ovarian, in the assay with PC-3 prostate, in the assay with SK-MEL-2 melanoma and in the assay on UACC-257 melanoma was more than 100 µM each time.
